Data published in patent US20220096516A1, “OLIGONUCLEOTIDE MOLECULE AND APPLICATION THEREOF IN TUMOR THERAPY” (Ractigen Therapeutics, priority 2019, published 2022).
d = 2'-deoxy (DNA); r = 2'-OH (RNA)

Test system: LHPP gene
Experiment: High-throughput screening of saRNAs targeting LHPP promoter: LHPP mRNA by one-step RT-qPCR in Huh7 cells
Type: cell-based, human
Conditions: 10 nM saRNA, 72 hours, relative to control (Mock)
Experimental: Human liver cancer cell line Huh7 was cultured in DMEM medium (Gibco), containing 10% of calf serum (Sigma-Aldrich) and 1% of penicillin/streptomycin (Gibco). The cells were cultured at 5% CO2 and 37° C. According to the instructions provided by the manufacturer, RNAiMax (Invitrogen, Carlsbad, Calif.) was used to transfect small activating RNAs at a concentration of 10 nM (unless otherwise specified).
At the end of transfection, the media were discarded, and each well was washed with 150 μL of PBS once. After discarding the PBS, 50 μL of cell lysis buffer (Takara) was added to each well and incubated at room temperature for 5 min. 1 μL of the resulted cell lysis was taken from each well and analyzed by qPCR on an ABI 7500 fast real-time PCR system (Applied Biosystems) using a one-step TB Green™ PrimeScrip™ RT-PCR kit II (Takara, RR086A) Each transfection sample was repeatedly amplified in 3 replicate wells.
Reaction conditions were as follows: reverse transcription reaction (stage 1): 5 min at 42° C., 10 s at 95° C.; PCR reaction (stage 2): 5 s at 95° C., 20 s at 60° C., 45 cycles of amplification. HPRT1 and TBP were used as internal reference genes. PCR primers used for amplifying LHPP, HPRT1 and TBP genes are shown in Table 2, wherein LHPP was amplified using the LHPP F1/R1 primer pair.
To calculate the relative expression level (Erel) of LHPP (target gene) in an saRNA-transfected sample relative to control treatment (Mock), the Ct values of the target gene and the two internal reference genes were substituted into formula 1
Erel=2^(CtT^m^-CtT^s^)/((2^(CtR1^m^-CtR1^s^)*2^(CtR2^m^-CtR2^s^))^(1/2))
wherein CtTm was the Ct value of the target gene from the control (Mock) sample; CtTs was the Ct value of the target gene from the saRNA-treated sample; CtR1m was the Ct value of the internal reference gene 1 from the control (Mock) sample; CtR1s was the Ct value of the internal reference gene 1 from the saRNA-treated sample; CtR2m was the Ct value of the internal reference gene 2 from the control (Mock) sample; and CtR2s was the Ct value of the internal reference gene 2 from the saRNA-treated sample.
In order to obtain saRNAs capable of activating LHPP transcription, Huh7 cells were transfected with each of the aforementioned 290 saRNAs with a transfection concentration of 10 nM, and 72 hours later, according to the same method as described above, the cells were lysed and analyzed by one-step RT-qPCR to obtain the relative (compared with the control (Mock)) expression level of LHPP gene for each saRNA-treated sample. […] The observed maximum activation and maximum inhibition is 3.46 fold and 0.49 fold, respectively, saRNAs with activating activity are referred to as activating saRNAs, and the saRNAs with inhibiting activity are referred to as inhibiting saRNAs.

Substance	Fold of changes in relative LHPP mRNA expression level	Fold of changes in relative LHPP mRNA expression level (log2)
RAG7-29: saRNA duplex; sense CACCCGGUCUUCUUGCCCUTT (SEQ ID NO: 79), antisense AGGGCAAGAAGACCGGGUGTT (SEQ ID NO: 243) (sugars from the 5' end r19 d2, backbone not given here)	1.28 fold	0.35 log2
RAG7-31: saRNA duplex; sense UGCACCCGGUCUUCUUGCCTT (SEQ ID NO: 94), antisense GGCAAGAAGACCGGGUGCATT (SEQ ID NO: 258) (sugars from the 5' end r19 d2, backbone not given here)	1.23 fold	0.30 log2
RAG7-32: saRNA duplex; sense UUGCACCCGGUCUUCUUGCTT (SEQ ID NO: 44), antisense GCAAGAAGACCGGGUGCAATT (SEQ ID NO: 208) (sugars from the 5' end r19 d2, backbone not given here)	1.40 fold	0.49 log2
RAG7-33: saRNA duplex; sense UUUGCACCCGGUCUUCUUGTT (SEQ ID NO: 119), antisense CAAGAAGACCGGGUGCAAATT (SEQ ID NO: 283) (sugars from the 5' end r19 d2, backbone not given here)	1.18 fold	0.24 log2
RAG7-34: saRNA duplex; sense GUUUGCACCCGGUCUUCUUTT (SEQ ID NO: 26), antisense AAGAAGACCGGGUGCAAACTT (SEQ ID NO: 190) (sugars from the 5' end r19 d2, backbone not given here)	1.51 fold	0.59 log2
RAG7-35: saRNA duplex; sense GGUUUGCACCCGGUCUUCUTT (SEQ ID NO: 24), antisense AGAAGACCGGGUGCAAACCTT (SEQ ID NO: 188) (sugars from the 5' end r19 d2, backbone not given here)	1.53 fold	0.61 log2
RAG7-43: saRNA duplex; sense CAGUUCCGGGUUUGCACCCTT (SEQ ID NO: 93), antisense GGGUGCAAACCCGGAACUGTT (SEQ ID NO: 257) (sugars from the 5' end r19 d2, backbone not given here)	1.23 fold	0.30 log2
RAG7-44: saRNA duplex; sense CCAGUUCCGGGUUUGCACCTT (SEQ ID NO: 121), antisense GGUGCAAACCCGGAACUGGTT (SEQ ID NO: 285) (sugars from the 5' end r19 d2, backbone not given here)	1.18 fold	0.24 log2
RAG7-86: saRNA duplex; sense CCGUUUCAGGGGCGAGUGATT (SEQ ID NO: 137), antisense UCACUCGCCCCUGAAACGGTT (SEQ ID NO: 301) (sugars from the 5' end r19 d2, backbone not given here)	1.15 fold	0.20 log2
RAG7-89: saRNA duplex; sense ACACCGUUUCAGGGGCGAGTT (SEQ ID NO: 104), antisense CUCGCCCCUGAAACGGUGUTT (SEQ ID NO: 268) (sugars from the 5' end r19 d2, backbone not given here)	1.21 fold	0.28 log2
RAG7-92: saRNA duplex; sense AGGACACCGUUUCAGGGGCTT (SEQ ID NO: 155), antisense GCCCCUGAAACGGUGUCCUTT (SEQ ID NO: 319) (sugars from the 5' end r19 d2, backbone not given here)	1.11 fold	0.15 log2
RAG7-93: saRNA duplex; sense AAGGACACCGUUUCAGGGGTT (SEQ ID NO: 144), antisense CCCCUGAAACGGUGUCCUUTT (SEQ ID NO: 308) (sugars from the 5' end r19 d2, backbone not given here)	1.14 fold	0.19 log2
RAG7-94: saRNA duplex; sense AAAGGACACCGUUUCAGGGTT (SEQ ID NO: 13), antisense CCCUGAAACGGUGUCCUUUTT (SEQ ID NO: 177) (sugars from the 5' end r19 d2, backbone not given here)	1.64 fold	0.72 log2
RAG7-95: saRNA duplex; sense AAAAGGACACCGUUUCAGGTT (SEQ ID NO: 12), antisense CCUGAAACGGUGUCCUUUUTT (SEQ ID NO: 176) (sugars from the 5' end r19 d2, backbone not given here)	1.67 fold	0.74 log2
RAG7-96: saRNA duplex; sense GAAAAGGACACCGUUUCAGTT (SEQ ID NO: 105), antisense CUGAAACGGUGUCCUUUUCTT (SEQ ID NO: 269) (sugars from the 5' end r19 d2, backbone not given here)	1.21 fold	0.27 log2
RAG7-97: saRNA duplex; sense CGAAAAGGACACCGUUUCATT (SEQ ID NO: 71), antisense UGAAACGGUGUCCUUUUCGTT (SEQ ID NO: 235) (sugars from the 5' end r19 d2, backbone not given here)	1.29 fold	0.37 log2
RAG7-98: saRNA duplex; sense CCGAAAAGGACACCGUUUCTT (SEQ ID NO: 145), antisense GAAACGGUGUCCUUUUCGGTT (SEQ ID NO: 309) (sugars from the 5' end r19 d2, backbone not given here)	1.14 fold	0.19 log2
RAG7-100: saRNA duplex; sense UUCCGAAAAGGACACCGUUTT (SEQ ID NO: 125), antisense AACGGUGUCCUUUUCGGAATT (SEQ ID NO: 289) (sugars from the 5' end r19 d2, backbone not given here)	1.17 fold	0.22 log2
RAG7-102: saRNA duplex; sense GCUUCCGAAAAGGACACCGTT (SEQ ID NO: 96), antisense CGGUGUCCUUUUCGGAAGCTT (SEQ ID NO: 260) (sugars from the 5' end r19 d2, backbone not given here)	1.23 fold	0.30 log2
RAG7-103: saRNA duplex; sense AGCUUCCGAAAAGGACACCTT (SEQ ID NO: 72), antisense GGUGUCCUUUUCGGAAGCUTT (SEQ ID NO: 236) (sugars from the 5' end r19 d2, backbone not given here)	1.29 fold	0.37 log2
RAG7-104: saRNA duplex; sense AAGCUUCCGAAAAGGACACTT (SEQ ID NO: 43), antisense GUGUCCUUUUCGGAAGCUUTT (SEQ ID NO: 207) (sugars from the 5' end r19 d2, backbone not given here)	1.41 fold	0.50 log2
RAG7-106: saRNA duplex; sense GAAAGCUUCCGAAAAGGACTT (SEQ ID NO: 150), antisense GUCCUUUUCGGAAGCUUUCTT (SEQ ID NO: 314) (sugars from the 5' end r19 d2, backbone not given here)	1.12 fold	0.17 log2
